Experimental data from US11319303B2 (WIGEN BIOMEDICINE TECHNOLOGY (SHANGHAI) CO., LTD., priority 2017, dated 2022).
Structures can show the parent of a compound that is named as a salt.

Target: LC3B (Homo sapiens, UniProt Q9GZQ8)
Experiment: Fluorescence Polarization (FP) Assay: displacement of FITC-labeled peptide from GST-LC3B
Format: binding
Details: not given
Description: The compounds of the present invention for regulating the autophagy-related protein LC3B were tested by Fluorescence Polarization (FP) Assay.
Fluorescence Polarization (FP) Assay Test

Row | SMILES | IC50 [µM]
1 | CN(C)CCNC=C1C(=O)CC(c2cccc(F)c2Cl)CC1=O (centres unmarked) [Compound 410] | < 3

Same assay, conditions: Fluorescence Polarization assay; GST-LC3B 180 nM, FITC-labeled peptide 18 nM, 25° C.; read-out: IC50

Row | SMILES | IC50 [µM]
2 | O=C1CC(c2cccc3[nH]c(Br)c(Cl)c23)CC(=O)C1=CNCCN1CCN(CCO)CC1 (centres unmarked) [Compound 405, 5-(2-bromo-3-chloro-1H-indol-4-yl)-2-(((2-(4-(2-ethoxyl)piperazin-1-yl)ethyl)amino)methylene) cyclohexane-1-1,3-dione] | < 3
3 | O=C1CC(c2ccccc2-c2c(Cl)cccc2Cl)CC(=O)C1=CNCCN1CCN(CCO)CC1 (centres unmarked) [Compound 406, 5-(2′,6′-dichloro-[1,1′-biphenyl]-2-yl)-2-(((2-(4-(2-ethoxyl)piperazin-1-yl)ethyl)amino)methylene) cyclohexane-1,3-dione] | < 3
4 | O=C1CC(=Cc2ccccc2)C(=O)C1=CNCCN1CCN(CCO)CC1 [Compound 407, 4-benzylidene-2-(((2-(4-(2-ethoxyl)piperazin-1-yl)ethyl)amino)methylene) cyclopentane-1,3-dione] | 15 to 100
5 | O=C1CC(c2cccc(Cl)c2Cl)CC(=O)C1=CN1CCCCC1 (centres unmarked) [Compound 408, 5-(2,3-dichlorophenyl)-2-(piperidine-1-ylmethylene) cyclohexane-1,3-dione] | 3 to 15
6 | CN(C)CCNC=C1C(=O)CC(c2c(Br)ccc(F)c2F)CC1=O (centres unmarked) [Compound 409] | < 3
7 | CN(C)CCNC=C1C(=O)CC(c2c(Cl)ccc(F)c2Cl)CC1=O (centres unmarked) [Compound 411, 5-(2,6-dichloro-3-fluorophenyl)-2-(((2-(dimethylamino)ethyl)amino)methylene) cyclohexane-1,3-dione] | < 3
8 | CN(C)CCNC=C1C(=O)CC(c2c(F)c(F)c(F)c(F)c2F)CC1=O (centres unmarked) [Compound 412, 2-(((2-(dimethylamino)ethyl)amino)methylene)-5-(perfluorophenyl) cyclohexane-1,3-dione] | < 3
9 | CN(C)CCNC=C1C(=O)CC(c2c[nH]cc2Br)CC1=O (centres unmarked) [Compound 413, 5-(4-bromo-1H-pyrrole-3-yl)-2-(((2-(dimethylamino)ethyl)amino)methylene) cyclohexane-1,3-dione] | 3 to 15
10 | CN(C)CCNC=C1C(=O)CC(c2c[nH]c(-c3ccccc3)c2)CC1=O (centres unmarked) [Compound 414, 2-(((2-(dimethylamino)ethyl)amino)methylene)-5-(5-phenyl-1H-pyrrole-3-yl)cyclohexane-1,3-dione] | 3 to 15
11 | Cc1ccc(C2CC(=O)C(=CO)C(=O)C2)cc1 (centres unmarked) [Compound 415, 2-(hydroxymethylene)-5-(4-methylphenyl)cyclo-hexane-1,3-dione] | 3 to 15
12 | O=C1CC(c2ccccc2F)CC(=O)C1=CO (centres unmarked) [Compound 416, 2-(hydroxymethylene)-5-(2-fluorophenyl)cyclo-hexane-1,3-dione] | < 3
13 | O=C1CC(c2cccc(F)c2F)CC(=O)C1=CO (centres unmarked) [Compound 417, 2-(hydroxymethylene)-5-(2,3-difluorophenyl)cyclo-hexane-1,3-dione] | < 3
14 | O=C1CC(c2ccccc2Cl)CC(=O)C1=CO (centres unmarked) [Compound 418, 2-(hydroxymethylene)-5-(2-chlorophenyl)cyclo-hexane-1,3-dione] | < 3
15 | O=C1CC(c2cccc(Cl)c2)CC(=O)C1=CO (centres unmarked) [Compound 419, 2-(hydroxymethylene)-5-(3-chlorophenyl)cyclo-hexane-1,3-dione] | < 3
16 | O=C1CC(c2c(Cl)cccc2Cl)CC(=O)C1=CO (centres unmarked) [Compound 420, 2-(hydroxymethylene)-5-(2,6-dichlorophenyl)cyclo-hexane-1,3-dione] | < 3
17 | O=C1CC(c2cccc(Cl)c2Cl)CC(=O)C1=CO (centres unmarked) [Compound 421, 2-(hydroxymethylene)-5-(2,3-dichlorophenyl)cyclo-hexane-1,3-dione] | < 3

Row | SMILES | IC50 [µM]
18 | O=C1CC(c2ccccc2Br)CC(=O)C1=CO (centres unmarked) [Compound 422, 2-(hydroxymethylene)-5-(2-bromophenyl)cyclo-hexane-1,3-dione] | < 3
19 | COc1ccccc1C1CC(=O)C(=CO)C(=O)C1 (centres unmarked) [Compound 423, 2-(hydroxymethylene)-5-(2-methoxyphenyl)cyclo-hexane-1,3-dione] | 3 to 15
20 | COc1ccc(C2CC(=O)C(=CO)C(=O)C2)c(OC)c1 (centres unmarked) [Compound 424, 2-(hydroxymethylene)-5-(2,4-dimethoxyphenyl) cyclohexane-1,3-dione] | 3 to 15
21 | N#Cc1ccc(C2CC(=O)C(=CO)C(=O)C2)cc1 (centres unmarked) [Compound 425, 2-(hydroxymethylene)-5-(4-cyanophenyl)cyclo-hexane-1,3-dione] | 15 to 100
22 | O=C1CC(c2ccccc2C(F)(F)F)CC(=O)C1=CO (centres unmarked) [Compound 426, 2-(hydroxymethylene)-5-(2-trifluoromethylphenyl) cyclohexane-1,3-dione] | < 3
23 | O=C1CC(c2cccs2)CC(=O)C1=CO (centres unmarked) [Compound 427, 2-(hydroxymethylene)-5-(2-thiophen)cyclohexane-1,3-dione] | 3 to 15
24 | O=C1CC(c2ccsc2)CC(=O)C1=CO (centres unmarked) [Compound 428, 2-(hydroxymethylene)-5-(3-thiophen)cyclohexane-1,3-dione] | 3 to 15
25 | O=C1CC(c2cccc3[nH]ccc23)CC(=O)C1=CO (centres unmarked) [Compound 429, 2-(hydroxymethylene)-5-(1H-indol-4-yl)cyclohexane-1,3-dione] | < 3
26 | O=C1CC(c2c[nH]c3ccccc23)CC(=O)C1=CO (centres unmarked) [Compound 430, 2-(hydroxymethylene)-5-(1H-indol-3-yl)cyclohexane-1,3-dione] | < 3
27 | O=C1CC(c2ccnc3ccccc23)CC(=O)C1=CO (centres unmarked) [Compound 431, 2-(hydroxymethylene)-5-(4-quinoline)cyclohexane-1,3-dione] | 3 to 15
28 | COc1ccc(Br)c(C2CC(=O)C(=CO)C(=O)C2)c1 (centres unmarked) [Compound 432, 2-(hydroxymethylene)-5-(2-bromo-5-methoxyphenyl)cyclo-hexane-1,3-dione] | < 3
29 | COc1cc(Br)c(C2CC(=O)C(=CO)C(=O)C2)cc1OC (centres unmarked) [Compound 433, 2-(hydroxymethylene)-5-(2-bromo-4,5-dimethoxyphenyl) cyclohexane-1,3-dione] | < 3
30 | O=C1CC(CCc2ccc3c(c2)OCO3)CC(=O)C1=CO (centres unmarked) [Compound 445, 2-(hydroxymethylene)-5-(2-(benzo[d] [1,3]dioxo-5-yl)ethyl)-cyclohexane-1,3-dione] | 15 to 100
31 | O=C1CC(c2c(C(F)(F)F)ccc(Cl)c2F)CC(=O)C1=CO (centres unmarked) [Compound 447, 2-(hydroxymethylene)-5-((2-fluoro-3-chloro-6-trifluoromethyl)phenyl)cyclohexane-1,3-dione] | < 3
32 | O=C1CC(c2cccs2)CC(=O)C1=CO (centres unmarked) [Compound 453, 2-(hydroxy-methylene)-5-(2-thiophen)cyclo-hexane-1,3-dione lithium salt] | 3 to 15
33 | O=C1CC(c2cccs2)CC(=O)C1=CO (centres unmarked) [Compound 455, 2-(hydroxy-methylene)-5-(2-thiophen)cyclo-hexane-1,3-dione potassium salt] | 3 to 15

Next, values leading:

Row | IC50 [µM] | SMILES
34 | 3 to 15 | O=C1CC(c2ccccc2[N+](=O)[O-])CC(=O)C1=CO (centres unmarked) [Compound 434, 2-(hydroxymethylene)-5-(2-nitrophenyl)cyclo-hexane-1,3-dione]
35 | 3 to 15 | O=C1CC(c2cccc([N+](=O)[O-])c2)CC(=O)C1=CO (centres unmarked) [Compound 435, 2-(hydroxymethylene)-5-(3-nitrophenyl)cyclo-hexane-1,3-dione]
36 | 3 to 15 | O=C1CC(c2ccc([N+](=O)[O-])cc2)CC(=O)C1=CO (centres unmarked) [Compound 436, 2-(hydroxymethylene)-5-(4-nitrophenyl)cyclo-hexane-1,3-dione]
37 | 3 to 15 | O=C1CC(c2ccc(C(F)(F)F)cc2)CC(=O)C1=CO (centres unmarked) [Compound 437, 2-(hydroxymethylene)-5-(4-trifluoromethylphenyl) cyclohexane-1,3-dione]
38 | 3 to 15 | O=C1CC(c2ccc(Br)cc2)CC(=O)C1=CO (centres unmarked) [Compound 438, 2-(hydroxymethylene)-5-(4-bromophenyl)cyclo-hexane-1,3-dione]
39 | 3 to 15 | O=C1CC(c2cccc(Br)c2)CC(=O)C1=CO (centres unmarked) [Compound 439, 2-(hydroxymethylene)-5-(3-bromophenyl)cyclo-hexane-1,3-dione]
40 | 3 to 15 | CSc1ccc(C2CC(=O)C(=CO)C(=O)C2)cc1 (centres unmarked) [Compound 440, 5-(4-methylthiophenyl)-2-(hydroxymethylene) cyclohexane-1,3-dione]
41 | 15 to 100 | COc1cccc(OC)c1C1CC(=O)C(=CO)C(=O)C1 (centres unmarked) [Compound 441, 2-(hydroxymethylene)-5-(2,6-dimethoxyphenyl) cyclohexane-1,3-dione]
42 | 15 to 100 | O=C1CC(c2ccccc2O)CC(=O)C1=CO (centres unmarked) [Compound 442, 2-(hydroxymethylene)-5-(2-hydroxyphenyl)cyclo-hexane-1,3-dione]
43 | 15 to 100 | O=C1CC(c2ccc(O)cc2)CC(=O)C1=CO (centres unmarked) [Compound 443, 2-(hydroxymethylene)-5-(4-hydroxyphenyl)cyclo-hexane-1,3-dione]
44 | 3 to 15 | O=C1CC(c2ccccc2)CC(=O)C1=CO (centres unmarked) [Compound 444, 2-(hydroxymethylene)-5-phenylcyclohexane-1,3-dione]
45 | 3 to 15 | O=C1CC(c2cccc(F)c2)CC(=O)C1=CO (centres unmarked) [Compound 446, 2-(hydroxymethylene)-5-(3-fluorophenyl)cyclo-hexane-1,3-dione]
46 | 3 to 15 | O=C1C=C(c2ccccc2)OC(=O)C1=CO [Compound 448, 3-(hydroxymethylene)-6-phenyl-2H-pyran-2,4(3H)-dione]
47 | 15 to 100 | CC(O)=C1C(=O)CC(c2ccccc2)CC1=O (centres unmarked) [Compound 449, 2-(1-hydroxyethylidene)-5-phenylcyclohexane-1,3-dione]
48 | 15 to 100 | O=C1CCN(c2ccccc2)C(=O)/C1=C\O [Compound 450, 3-(hydroxymethylene)-N-phenylpiperidine-2,4-dione]
49 | 3 to 15 | O=C1CC(c2ccccc2)C(F)C(=O)/C1=C/O (centres unmarked) [Compound 451, 2-(hydroxymethylene)-4-fluoro-5-(phenyl)cyclohexane-1,3-dione]
50 | 3 to 15 | O=C1CC(c2ccccc2)C(F)(F)C(=O)/C1=C/O (centres unmarked) [Compound 452, 2-(hydroxymethylene)-4,4-difluoro-5-(phenyl)cyclohexane-1,3-dione]
